Like-named read-outs stand apart in the source and are kept apart here.
Key:
[1] = molecular target: T1, furin (Homo sapiens, UniProt P09958); set-up: method as in Shapira et al. 2022 Nature; details: ref Shapira et al. 2022 Nature; cited from earlier work
T1 construct: purchased R&D Systems

[2] = molecular target: T2, thrombin (Homo sapiens, UniProt P00734); set-up: method as in Shapira et al. 2022 Nature; details: ref Shapira et al. 2022 Nature; cited from earlier work
T2 construct: purchased MilliporeSigma

[3] = molecular target: T3, matriptase (Homo sapiens, UniProt Q9Y5Y6); set-up: method as in Shapira et al. 2022 Nature; details: ref Shapira et al. 2022 Nature; cited from earlier work
T3 construct: made in house
T3 sequence (Q9Y5Y6 1-855): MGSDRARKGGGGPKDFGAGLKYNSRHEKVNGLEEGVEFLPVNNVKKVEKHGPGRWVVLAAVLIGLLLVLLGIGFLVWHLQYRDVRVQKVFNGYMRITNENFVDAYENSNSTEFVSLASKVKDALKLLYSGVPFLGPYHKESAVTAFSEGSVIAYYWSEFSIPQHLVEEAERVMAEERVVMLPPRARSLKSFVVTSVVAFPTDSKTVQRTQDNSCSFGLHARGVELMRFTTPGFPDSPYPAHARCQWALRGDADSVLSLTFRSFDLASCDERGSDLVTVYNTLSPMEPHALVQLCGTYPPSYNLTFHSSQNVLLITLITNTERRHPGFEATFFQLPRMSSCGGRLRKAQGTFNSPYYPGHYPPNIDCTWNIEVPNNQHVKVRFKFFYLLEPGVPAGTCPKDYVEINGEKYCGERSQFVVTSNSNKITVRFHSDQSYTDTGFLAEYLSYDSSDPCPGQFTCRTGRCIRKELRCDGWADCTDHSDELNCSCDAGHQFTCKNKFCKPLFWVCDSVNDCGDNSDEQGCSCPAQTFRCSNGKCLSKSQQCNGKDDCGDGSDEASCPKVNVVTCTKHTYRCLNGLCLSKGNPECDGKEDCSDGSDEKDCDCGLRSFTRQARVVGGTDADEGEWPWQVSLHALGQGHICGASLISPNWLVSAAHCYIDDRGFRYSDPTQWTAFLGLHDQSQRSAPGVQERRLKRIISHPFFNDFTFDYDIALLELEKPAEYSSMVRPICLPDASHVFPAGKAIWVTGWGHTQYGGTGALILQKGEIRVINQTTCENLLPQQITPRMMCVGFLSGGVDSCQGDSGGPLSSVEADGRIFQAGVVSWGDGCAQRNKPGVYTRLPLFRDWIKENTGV

[4] = molecular target: T4, WT TMPRSS13 (Homo sapiens, UniProt Q9BYE2); assay: In cellulo inhibitory activity in TMPRSS13-transfected Vero cells; assay type: cell-based; details: 24 h; for remaining activity at 10 µM: 10 µM compound, media, relative to DMSO, read-out: residual activity of TMPRSS13; for IC50: Boc-RVRR-AMC, read-out: IC50 in cellulo TMPRSS13 inhibition
T4 construct: the full length TMPRSS13 (TMPRSS13-WT); expressed in transfected cells; host or cells: Vero C1008 (Vero E6) cells
T4 sequence (Q9BYE2 326-567 isoform Q9BYE2-6 limits assumed): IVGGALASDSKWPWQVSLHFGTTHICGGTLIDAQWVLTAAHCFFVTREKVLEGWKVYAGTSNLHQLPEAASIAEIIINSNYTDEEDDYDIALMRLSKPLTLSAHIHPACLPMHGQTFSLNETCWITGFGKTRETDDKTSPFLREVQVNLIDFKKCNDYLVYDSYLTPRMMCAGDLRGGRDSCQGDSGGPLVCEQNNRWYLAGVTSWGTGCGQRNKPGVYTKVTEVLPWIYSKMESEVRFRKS
Procedure: Vero C1008 cells were grown in 12-well plates (200K cells per well) and transfected for 24 h via Lipofectamine 3000 (Life Technologies) with one of the following plasmids: pcDNA3.1 (empty vector, EV), pcDNA3.1-TMPRSS13 WT or pcDNA3.1-TMPRSS13-AFAAS-6His. The cells were then washed 2 times with PBS before HCell-100 medium (Wisent) containing the indicated concentrations of each compound or the control condition (0.01% DMSO) was added. After 24 h of incubation with the compounds, the medium was harvested, and 90 μL was placed in 96-well plate wells with 10 µL of 200 μM Boc-RVRR-AMC. Fluorescence was acquired at room temperature in an FLx800 TBE microplate reader, with excitation at 360 nm and emission at 460 nm. The background was then subtracted by removing the signal recorded with the cells transfected with the empty vector (pcDNA3.1). Proteolytic activity results are represented as a percentage of the DMSO-treated condition. The IC50 was calculated via nonlinear regression of the compound concentration relative to the velocity.

[5] = molecular target: T3, matriptase; assay: In vitro inhibition assay, matriptase, Boc-QAR-AMC; assay type: biochemical; details: Morrison Ki equation, tight-binding
Procedure: (§1) Recombinant TMPRSS13-AFAAS-6His (this study) and matriptase[34] were expressed and purified as described. Recombinant human furin, Factor Xa (R&D Systems) and thrombin (MilliporeSigma) were obtained from commercial sources. Assays were performed in a buffer composed of 50 mM HEPES pH 7.4, 1 mM β-mercaptoethanol, 1 mM CaCl2 and 500 μg/ml BSA for furin and 50 mM HEPES pH 7.4, 150 mM NaCl and 0.1% BSA for other proteases. Assays were performed at room temperature using fluorogenic substrates (Boc-RVRR-AMC for furin and TMPRSS13, Boc-QAR-AMC for other proteases). The enzymatic activity was measured via fluorescence (excitation at 360 nm and emission at 460 nm) at room temperature using an HTX Synergy microplate reader (Agilent). Kis for TMPRSS13 and Factor Xa (FXa) were derived from IC50 dose–response curves using the Cheng-Prusoff equation[35] for reversible competitive inhibitors. For matripase, a plot of the enzyme velocity as a function of the inhibitor concentration was fitted with nonlinear regression analysis via the Morrison Ki equation[36] for competitive tight-binding inhibitors.

[6] = molecular target: T2, thrombin; assay: In vitro inhibition assay, thrombin, Boc-QAR-AMC; assay type: biochemical
Procedure: as §1

[7] = molecular target: T1, furin; assay: In vitro inhibition assay, furin, Boc-RVRR-AMC; assay type: biochemical
Procedure: as §1

T1 sequence (P09958 108-794): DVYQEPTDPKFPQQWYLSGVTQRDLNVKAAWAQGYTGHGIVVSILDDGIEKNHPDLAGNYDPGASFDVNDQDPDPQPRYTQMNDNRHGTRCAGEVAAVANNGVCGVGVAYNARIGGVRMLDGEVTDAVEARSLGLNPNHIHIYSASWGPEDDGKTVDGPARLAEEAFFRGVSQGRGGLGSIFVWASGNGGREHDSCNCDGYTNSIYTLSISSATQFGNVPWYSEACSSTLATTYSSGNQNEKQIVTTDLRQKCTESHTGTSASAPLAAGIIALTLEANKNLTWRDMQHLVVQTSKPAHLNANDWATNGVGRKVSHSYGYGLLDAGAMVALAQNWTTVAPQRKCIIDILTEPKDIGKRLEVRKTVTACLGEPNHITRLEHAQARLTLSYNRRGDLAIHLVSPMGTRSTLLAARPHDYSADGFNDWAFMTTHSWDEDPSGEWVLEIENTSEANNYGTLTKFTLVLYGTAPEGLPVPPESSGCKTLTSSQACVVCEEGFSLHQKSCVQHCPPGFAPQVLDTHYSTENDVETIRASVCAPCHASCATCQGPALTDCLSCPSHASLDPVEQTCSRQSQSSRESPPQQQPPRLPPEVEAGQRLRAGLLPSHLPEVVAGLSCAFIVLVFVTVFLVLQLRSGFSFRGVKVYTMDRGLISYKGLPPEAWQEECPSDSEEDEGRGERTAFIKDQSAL

SMILES	Ki [1]	Ki [2]	Ki [3]	Ki Matriptase [3]	remaining activity at 10 µM [4]	IC50 [4]	Ki [5]	Ki Matriptase [5]	Ki [6]	Ki [7]	remaining activity at 10 µM ([4]; Vero)
N=C(N)NCCCCC(=O)N[C@@H](CCC(N)=O)C(=O)N[C@@H](Cc1ccccc1)C(=O)N[C@@H](CCCNC(=N)N)C(=O)c1nc2ccccc2s1 [Compound N-0130, (H)-RQFR-Kbt]	> 10000 nM	8230 ± 1550 nM	0.13 ± 0.03 nM	subnanomolar	18.4%	192 nM	–	–	–	–	–
N=C(N)NCCCCC(=O)N[C@@H](CCC(N)=O)C(=O)N[C@@H](CCc1ccccc1)C(=O)N[C@@H](CCCNC(=N)N)C(=O)c1nc2ccccc2s1 [Compound N-0430, (H)-RQhFR-Kbt]	–	–	–	–	–	53 nM	0.28 ± 0.05 nM	subnanomolar	> 10000 nM	> 10000 nM	9%
